{
  "source": "patent US20040022842A1",
  "about": "“Liposome preparations containing oxaliplatin” (Mebiopharm Co., Ltd., priority 2002, published 2004)",
  "tested_on": "Colon 26 cells",
  "experiment": "Cytotoxicity of oxaliplatin (L-OHP) liposomes against tumor cells, WST-1 assay (Example 7), Colon 26",
  "assay_type": "cell-based",
  "details": "Colon 26 and AsPC-1 cells; comparison of L-OHP solution and liposome preparations",
  "protocol": "Colon 26 cells and AsPC-1 cells were inoculated on a 96-well plate at 5×10^3 cells per well and pre-incubated with 5% CO2 overnight.\nThe cells were incubated at 37° C. under 5% CO2 for 4 hours. The test solutions were removed, and the incubation was continued for an additional 2 days, at which time the number of living cells was counted. Cell viability was determined according to the WST-1 assay.\nAccording to the WST-1 assay, the assay solution contained 5 mmol/L WST-1 reagent (10 μL); 20 mmol/L HEPES; 1-methoxy-PMS at 0.2 mmol/L, at pH 7.4. This solution was added to each well, mixed thoroughly, and incubated in a CO2 incubator for 2 hours to allow for color development. The absorbance was then measured on a plate reader at 400-450 nm, with a reference wavelength of >600 nm.",
  "data": [
    {"smiles": "O=C1[O][Pt]2([NH]C3CCCCC3[NH]2)[O]C1=O", "note": "[L-OHP solution, Oxaliplatin]", "values": [
      {"measurement": "relative cytotoxicity in words", "value": "showed the highest toxicity"}
    ]}
  ]
}
